Measurements published in patent US9573961B2, “Inhibitors of the renal outer medullary potassium channel” (Merck Sharp & Dohme Corp., priority 2012, dated 2017).
Read-outs that look alike come from different tables or passages of the source.

Key:
Kir1.1 (ROMK1) = Kir1.1 (ROMK1) (Homo sapiens (Human), UniProt P48048); experiment: Electrophysiology Assay (whole cell voltage clamp, IonWorks Quattro); format: cell-based; conditions: block during voltage step to 0 mV
Summary of the method: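 CHO cells stably expressing the channel, induced overnight with 1 mM sodium butyrate, were recorded in amphotericin-perforated patch mode. The test pulse was a 100 ms step to 0 mV from −70 mV, then a −70 to +70 mV ramp, applied before and after a 6 min compound incubation. Current amplitudes were compared.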

hROMK (hKir1.1) = hROMK (hKir1.1) (Homo sapiens (Human), UniProt P48048); experiment: Thallium Flux Assay (ROMK channel functional thallium flux, FLIPR-Tetra); format: cell-based
Sequence of hROMK (hKir1.1) (P48048 whole entry): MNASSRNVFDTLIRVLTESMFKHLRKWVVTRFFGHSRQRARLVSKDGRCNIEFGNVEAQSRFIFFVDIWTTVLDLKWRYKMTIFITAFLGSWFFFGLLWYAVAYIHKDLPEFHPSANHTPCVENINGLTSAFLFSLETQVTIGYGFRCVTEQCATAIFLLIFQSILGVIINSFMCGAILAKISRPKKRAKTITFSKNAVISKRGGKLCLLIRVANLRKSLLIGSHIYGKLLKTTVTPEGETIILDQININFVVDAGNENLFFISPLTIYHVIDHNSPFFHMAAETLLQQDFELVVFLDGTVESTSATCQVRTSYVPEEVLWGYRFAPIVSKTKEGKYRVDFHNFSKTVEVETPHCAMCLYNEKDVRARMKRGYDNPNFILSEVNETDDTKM
Summary of the method: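 HEK293 cells stably expressing hROMK loaded with FluxOR dye for 90 min, then incubated with compound for 30 min at 23-25 °C. Normalized to a 3 μM standard ROMK inhibitor as % fluorescence change.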

[1] = Electrophysiology IC50, Chinese hamster ovary cells stably expressing Kir1.1
[2] = HEK293 cells stably expressing hROMK (hKir1.1), read-out: Thallium Flux IC50
[3] = Chinese hamster ovary cells stably expressing Kir1.1, read-out: Electrophysiology IC50

Sequence of Kir1.1 (ROMK1) (P48048 whole entry): as above

SMILES | IC50 (Kir1.1 (ROMK1); [1]) [nM] | IC50 (hROMK (hKir1.1); [2]) [nM] | IC50 (Kir1.1 (ROMK1); [3]) [nM] | IC50 (hROMK (hKir1.1); Thallium Flux IC50) [nM] | IC50 (hROMK (hKir1.1); read-out: Thallium Flux IC50) [nM]
COc1cc(CC(=O)N2CCN3C[C@H](c4ccc5c(c4)CCOC5=O)OC[C@H]3C2)ccc1C#N [Example 28, 2-methoxy-4-{2-oxo-2-[(3S,9aR)-3-(1-oxo-3,4-dihydro-1H-isochromen-6-yl)hexahydropyrazino[2,1-c][1,4]oxazin-8(1H)-yl]ethyl}benzonitrile] | 130 | 330 |  |  | 
Cc1c(C2CN3CCCN(C(=O)Cc4ccc(-n5cnnn5)cc4)CC3CO2)ccc2c1COC2=O (stereo not drawn) [Example 50, 4-methyl-5-(9-{[4-(1H-tetrazol-1-yl)phenyl]acetyl}octahydro-1H-[1,4]oxazino[4,3-a][1,4]diazepin-3-yl)-2-benzofuran-1(3H)-one] | 180 | 740 |  |  | 
Cc1c([C@@H]2CN3CCN(C(=O)C4CCCc5cc(-n6cnnn6)ccc54)C[C@H]3CO2)csc1C#N (single isomer, unassigned) [Example 96] |  | 460 | 190 |  | 
Cc1c([C@@H]2CN3CCN(C(=O)C(C)c4ccc(-n5cnnn5)cc4)C[C@H]3CO2)ccc(F)c1C#N (stereo partly drawn) [Example 45, 6-fluoro-2-methyl-3-[(3R,9aS)-8-{2-[4-(1H-tetrazol-1-yl)phenyl]propanoyl}octahydropyrazino[2,1-c][1,4]oxazin-3-yl]benzonitrile] |  | 330 | 210 |  | 
Cc1c([C@H]2CN3CCN(C(=O)Cc4ccc(-n5cnnn5)cc4)C[C@@H]3CO2)ccc2c1COC2=O [Example 14, 4-methyl-5-[(3S,9aR)-8-{[4-(1H-tetrazol-1-yl)phenyl]acetyl}octahydropyrazino[2,1-c][1,4]oxazin-3-yl]-2-benzofuran-1(3H)-one] | 140 | 110 |  |  | 
Cc1c([C@@H]2CN3CCN(C(=O)Cc4cc(F)c(-n5cnnn5)cc4F)C[C@H]3CO2)ccc(F)c1C#N [Example 55, 3-[(3R,9aS)-8-{[2,5-difluoro-4-(1H-tetrazol-1-yl)phenyl]acetyl}octahydropyrazino[2,1-c][1,4]oxazin-3-yl]-6-fluoro-2-methylbenzonitrile] | 100 | 130 |  |  | 
Cc1c([C@H]2CN3CCN(C(=O)Cc4c(F)cc(-n5cnnn5)cc4F)C[C@H]3CN2)ccc(F)c1C#N [Example 103] | 80 |  |  | 110 | 
COc1cc([C@H]2CN3CCN(C(=O)Cc4ccc(-n5cnnn5)cc4)C[C@@H]3CO2)ccc1C#N [Example 18, 2-methoxy-4-[(3S,9aR)-8-{[4-(1H-tetrazol-1-yl)phenyl]acetyl}octahydropyrazino[2,1-c][1,4]oxazin-3-yl]benzonitrile] | 110 | 250 |  |  | 
Cc1c([C@@H]2CN3CCN(C(=O)Cc4cc(F)c(-n5cnnn5)cc4F)C[C@@H]3CO2)ccc(F)c1C#N [Example 54, 3-[(3R,9aR)-8-{[2,5-difluoro-4-(1H-tetrazol-1-yl)phenyl]acetyl}octahydropyrazino[2,1-c][1,4]oxazin-3-yl]-6-fluoro-2-methylbenzonitrile] | 100 |  |  |  | 100
Cc1c([C@H]2CN3CCN(C(=O)Cc4ccc(-n5cnnn5)cc4)C[C@H]3CO2)csc1C#N [Example 40, 3-methyl-4-[(3S,9aS)-8-{[4-(1H-tetrazol-1-yl)phenyl]acetyl}octahydropyrazino[2,1-c][1,4]oxazin-3-yl]thiophene-2-carbonitrile] | 80 | 90 |  |  | 
COc1cc(CC(=O)N2CCN3C[C@H](c4ccc5c(c4)CCOC5=O)OC[C@H]3C2)c(F)cc1C#N [Example 31, 5-fluoro-2-methoxy-4-{2-oxo-2-[(3S,9aR)-3-(1-oxo-3,4-dihydro-1H-isochromen-6-yl)hexahydropyrazino[2,1-c][1,4]oxazin-8(1H)-yl]ethyl}benzonitrile] | 120 | 570 |  |  | 
Cc1c([C@@H]2CN3CCN(C(=O)Cc4c(F)cc(-n5cnnn5)cc4F)C[C@@H]3CO2)ccc2c1COC2=O [Example 79, 5-[(3R,9aR)-8-{[2,6-difluoro-4-(1H-tetrazol-1-yl)phenyl]acetyl}octahydropyrazino[2,1-c][1,4]oxazin-3-yl]-4-methyl-2-benzofuran-1(3H)-one] |  | 260 | 190 |  | 
